Data on 47 compounds can be found in patent US20120309717A1, “COMPOUNDS, METHODS AND PHARMACEUTICAL COMPOSITIONS FOR INHIBITING PARP” (EISAI INC., priority 2003, published 2012).

Data set [1] addresses T1, purified recombinant human PARP (Homo sapiens, UniProt P09874).
T1 construct: purchased Trevigan (Gaithersburg, Md.)
As to the kind of experiment: PARP enzyme assay (IC50). The class given is biochemical. Conditions: approximate values. The procedure:
A convenient method to determine IC50 of a PARP inhibitor compound is a PARP assay using purified recombinant human PARP from Trevigan (Gaithersburg, Md.), as follows: The PARP enzyme assay is set up on ice in a volume of 100 microliters consisting of 100 mM Tris-HCl (pH 8.0), 1 mM MgCl2, 28 mM KCl, 28 mM NaCl, 0.1 mg/ml of DNase I activated herring sperm DNA (Sigma, Mo.), 3.0 micromolar [3H]nicotinamide adenine dinucleotide (470 mci/mmole), 7 micrograms/ml PARP enzyme, and various concentrations of the compounds to be tested. The reaction is initiated by incubating the mixture at 25° C. After 15 minutes of incubation, the reaction is terminated by adding 500 microliters of ice cold 20% (w/v) trichloroacetic acid. The precipitate formed is transferred onto a glass fiber filter (Packard Unifilter-GF/B) and washed three times with ethanol. After the filter is dried, the radioactivity is determined by scintillation counting.

The next data set deals with P388D1 cells. As to the kind of experiment: H2O2 induced cell death assay (cytoprotective effect, LDH release). The note with it: Mus musculus, approximate values, concentration for 50% reduction of cell death, 2 mM H2O2, 4 h. The class given is cell-based, murine. The procedure:
We used a H2O2 induced cell death assay to determine the cytoprotective effect of PARP inhibitors. P388D1 cells (CCL-46, ATCC), derived from a murine macrophage-like tumor, were maintained in Dulbeco's Modified Eagle Medium (DMEM) with 10% horse serum and 2 mM L-glutamine. The cytotoxicity assay was set up in a 96-well plate. In each well, 190 ul cells were seeded at 2×10^6/ml density. To determine the EC50, the concentration of a compound required to achieve 50% reduction of cell death, a dose response experiment was conducted. PARP inhibitors were added to the media to a final concentration of 0.01, 0.03, 0.1, 0.3, 1, 3, 10, 30 uM. After 15 min incubation with a PARP inhibitor, 5 ul of freshly prepared H2O2 were added to the cells to a final concentration of 2 mM. Cells were returned to 37° C. incubator for 4 h. At the end of incubation, 25 ul of supernatant were sampled from the cell media to determine the level of lactate dehydrogenase (LDH) released from dead cells. The LDH activity was determined by monitoring the rate of decrease of NADH absorbency at 340 nm. The group without drug treatment was used to calculate total cell death due to H2O2 treatment. Each data point was an average of quadruplicate. The EC50 was determined from a dose response curve.
Background: LDH in the medium is a marker of cell lysis.

In data set [2] the test system is ischemia and reperfusion of the heart. Conditions: 1 mg/kg; cited from earlier work.

pEC50, pIC50: −log10 of the molar value.

T1 sequence (P09874 whole entry): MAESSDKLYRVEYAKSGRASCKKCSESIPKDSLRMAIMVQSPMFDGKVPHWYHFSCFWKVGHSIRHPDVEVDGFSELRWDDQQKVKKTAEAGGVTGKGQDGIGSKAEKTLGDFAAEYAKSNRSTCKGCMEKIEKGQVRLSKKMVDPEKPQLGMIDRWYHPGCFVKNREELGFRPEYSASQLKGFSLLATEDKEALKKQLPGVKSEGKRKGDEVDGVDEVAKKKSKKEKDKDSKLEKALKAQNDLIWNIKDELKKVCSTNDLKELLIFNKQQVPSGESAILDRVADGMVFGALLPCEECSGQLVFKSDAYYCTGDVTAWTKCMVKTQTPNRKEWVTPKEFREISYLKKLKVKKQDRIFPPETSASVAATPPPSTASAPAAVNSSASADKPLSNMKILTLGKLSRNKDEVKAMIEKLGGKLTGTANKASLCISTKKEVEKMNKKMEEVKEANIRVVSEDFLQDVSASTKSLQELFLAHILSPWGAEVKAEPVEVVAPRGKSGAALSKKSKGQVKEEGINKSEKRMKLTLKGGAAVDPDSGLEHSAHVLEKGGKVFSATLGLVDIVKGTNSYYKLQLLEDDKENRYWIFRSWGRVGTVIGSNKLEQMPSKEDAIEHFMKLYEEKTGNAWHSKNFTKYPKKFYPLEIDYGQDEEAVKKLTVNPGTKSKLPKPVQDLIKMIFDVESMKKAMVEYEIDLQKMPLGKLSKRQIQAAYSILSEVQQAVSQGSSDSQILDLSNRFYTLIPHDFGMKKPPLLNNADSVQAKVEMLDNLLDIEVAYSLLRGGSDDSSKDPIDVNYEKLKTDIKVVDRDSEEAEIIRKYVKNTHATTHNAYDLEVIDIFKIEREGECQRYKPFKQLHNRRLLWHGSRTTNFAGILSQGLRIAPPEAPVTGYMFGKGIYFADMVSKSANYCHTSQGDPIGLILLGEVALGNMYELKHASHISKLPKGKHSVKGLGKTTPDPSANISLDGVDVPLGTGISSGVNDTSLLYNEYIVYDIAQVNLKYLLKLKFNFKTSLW

With `NNC(=O)C1=CNc2c(Cl)ccc3c(=O)[nH]nc1c23`, in data set [1] (Table I), the pIC50 is 6.13.

With `O=c1[nH]nc2c3c(cccc13)NC=N2`, the pIC50 in data set [1] (Table I) was 7.41. Besides, the pEC50 with P388D1 cells (Table I) was 6.46.

With `NNC(=O)C1=CNc2cccc3c(=O)[nH]nc1c23`, the pIC50 in data set [1] (Table I) was 7.85. For the same compound, in the data set on P388D1 cells (Table I), the pEC50 was 7.00.

In the case of `NNC(=O)C1=Cc2n[nH]c(=O)c3ccc(NN)c(c23)N1`, the pIC50 in data set [1] (Table I) was 5.55.

Consider `NNC(=O)C1=Cc2n[nH]c(=O)c3cccc(c23)N1`, for which the pIC50 in data set [1] (Table I) was 7.59. Moreover, the pEC50 in the data set with P388D1 cells (Table I) is 6.29.

Regarding `O=C(O)C1=Cc2n[nH]c(=O)c3cccc(c23)N1`, the pIC50 in data set [1] (Table I) was 6.80. For the same compound, the pEC50 with P388D1 cells (Table I) is 5.77.

As for `NC1=Nc2n[nH]c(=O)c3cccc(c23)N1`, the negative-log IC50 (pIC50) in data set [1] (Table I) is 7.04. This compound had a negative-log EC50 (pEC50) with P388D1 cells (Table I) of 6.19.

Take `NNC(=O)C1=Nc2n[nH]c(=O)c3cccc(c23)N1`: the pIC50 in data set [1] (Table I) was 7.68. Moreover, in the data set on P388D1 cells (Table I), the pEC50 is 6.62.

Take `CC1=Cc2n[nH]c(=O)c3ccc(Cl)c(c23)N1`: the pIC50 in data set [1] (Table I) was 6.92.

Take `O=c1[nH]nc2c3c(cccc13)NC(CO)=N2`: the pIC50 in data set [1] (Table I) is 7.59. In addition, the pEC50 in the data set with P388D1 cells (Table I) is 6.44.

`O=c1[nH]nc2c3c(cccc13)NC(CNCCCc1ccccc1)=N2`: in data set [1] (Table I), the pIC50 was 7.06. For the same compound, the pEC50 with P388D1 cells (Table I) is 8.00.

Consider `CN(C)CC1=Nc2n[nH]c(=O)c3cccc(c23)N1`, for which the pIC50 in data set [1] (Table I) was 7.72. Further, the pEC50 in the data set on P388D1 cells (Table I) was 6.89.

For `O=c1[nH]nc2c3c(cccc13)NC(CN1CCCCC1)=N2`, the pIC50 in data set [1] (Table I) is 7.72. The same compound showed a negative-log EC50 (pEC50) with P388D1 cells (Table I) of 6.92.

With `O=c1[nH]nc2c3c(cccc13)NC(CN1CCCC1)=N2`, the pIC50 in data set [1] (Table I) is 7.74.

With `O=c1[nH]nc2c3c(cccc13)N=C(CN1CCOCC1)N2`, the pIC50 in data set [1] (Table I) is 7.74.

For the compound `CC(=O)OC(C(=O)O)C(OC(C)=O)C(=O)NCc1ccc2c(c1)-c1n[nH]c(=O)c3cccc(c13)O2` (stereo not shown), the pIC50 in data set [1] (Table II) is 7.46. The compound also gave a pEC50 in the data set on P388D1 cells (Table II) of 5.68.

As to `NCc1ccc2c(c1)-c1n[nH]c(=O)c3cccc(c13)O2`, the pIC50 in data set [1] (Table II) was 7.72. In the data set with P388D1 cells (Table II), this compound showed a negative logarithm of the EC50 (pEC50) of 5.68.

Take `O=c1[nH]nc2c3c(cccc13)Oc1ccc(CN3CCOCC3)cc1-2`: the pIC50 in data set [1] (Table II) was 7.17. In the data set with P388D1 cells (Table II), this compound had a pEC50 of 6.52.

In the case of `O=C(NCc1ccc2c(c1)-c1n[nH]c(=O)c3cccc(c13)O2)C1CCCN1` (stereo not shown), the negative logarithm of the IC50 (pIC50) in data set [1] (Table II) was 7.52. In the data set with P388D1 cells (Table II), this compound had a pEC50 of 7.10.

In the case of `N=C(N)NCc1ccc2c(c1)-c1n[nH]c(=O)c3cccc(c13)O2`, in data set [1] (Table II), the pIC50 is 7.46. Also, the pEC50 in the data set on P388D1 cells (Table II) is 6.00.

As to `CCN1CCN(Cc2ccc3c(c2)-c2n[nH]c(=O)c4cccc(c24)O3)CC1`, the pIC50 in data set [1] (Table II) was 7.22. This compound showed a pEC50 in the data set with P388D1 cells (Table II) of 6.92.

For `O=c1[nH]nc2c3c(cccc13)Oc1ccc(CN3CCN(CCO)CC3)cc1-2`, the pIC50 in data set [1] (Table II) was 7.00. The compound also showed a pEC50 in the data set with P388D1 cells (Table II) of 7.10.

As for `O=c1[nH]nc2c3c(cccc13)Oc1ccc(CN3CCN(CCOCCO)CC3)cc1-2`, the pIC50 in data set [1] (Table II) was 6.89. Besides, the pEC50 in the data set with P388D1 cells (Table II) was 7.12.

Turning to `NOCc1ccc2c(c1)-c1n[nH]c(=O)c3cccc(c13)O2`, the pIC50 in data set [1] (Table II) was 6.78. The pEC50 in the data set with P388D1 cells (Table II) was 6.33.

Take `O=c1[nH]nc2c3c(cccc13)Oc1ccc(CO)cc1-2`: the pIC50 in data set [1] (Table II) was 7.04. Also, the pEC50 with P388D1 cells (Table II) was 6.39.

On to `O=C(CCP(=O)(OCc1ccccc1)OCc1ccccc1)OCc1ccc2c(c1)-c1n[nH]c(=O)c3cccc(c13)O2`, for which the pIC50 in data set [1] (Table II) is 6.38.

Turning to `O=C(CCl)OCc1ccc2c(c1)-c1n[nH]c(=O)c3cccc(c13)O2`, in data set [1] (Table II), the pIC50 is 6.75.

Consider `O=C(O)c1ccc2c(c1)-c1n[nH]c(=O)c3cccc(c13)O2`, for which the negative-log IC50 (pIC50) in data set [1] (Table II) is 6.78.

For the compound `CCOP(=O)(NCc1ccc2c(c1)-c1n[nH]c(=O)c3cccc(c13)O2)OCC`, in data set [1] (Table II), the pIC50 is 6.56.

Turning to `O=c1[nH]nc2c3c(cccc13)Oc1ccc(COP(=O)(O)O)cc1-2`, the pIC50 in data set [1] (Table II) is 7.47. The pEC50 in the data set with P388D1 cells (Table II) is 6.12.

In the case of `CN(C)c1ccc(/N=N/c2ccc(S(=O)(=O)NCc3ccc4c(c3)-c3n[nH]c(=O)c5cccc(c35)O4)cc2)cc1`, the negative logarithm of the IC50 (pIC50) in data set [1] (Table II) was 5.89.

As to `C=COC(=O)c1ccc2c(c1)-c1n[nH]c(=O)c3cccc(c13)O2`, the pIC50 in data set [1] (Table II) was 7.05.

Regarding `O=c1[nH]nc2c3c(cccc13)Oc1ccc(CN3CCNCC3)cc1-2`, the pIC50 in data set [1] (Table II) was 7.32. For the same compound, the negative logarithm of the EC50 (pEC50) in the data set with P388D1 cells (Table II) was 6.57.

In the case of `Oc1cccc2c(O)nccc12` [1,5-dihydroxyisoquinoline], in data set [2], the “reduction in infarct size” value was 38-48%.

Regarding `CN(C)CCN(C)Cc1ccc2c(c1)-c1n[nH]c(=O)c3cccc(c13)O2` [10-{[(2-Dimethylamino-ethyl)-methyl-amino]-methyl}-2H-7-oxa-1,2-diaza-benzo[de]anthracen-3-one], the negative-log IC50 (pIC50) in data set [1] (Table II) is 7.00. The same compound showed a pEC50 in the data set with P388D1 cells (Table II) of 6.77.

Turning to `O=c1[nH]nc2c3c(cccc13)Oc1ccc(CN(CCO)CCO)cc1-2` [Compound 47, 10-{[Bis-(2-hydroxy-ethyl)-amino]-methyl}-2H-7-oxa-1,2-diaza-benzo[de]anthracen-3-one], the melting point fell in the range of 222 to 225 °C.

As for `O=c1[nH]nc2c3c(cccc13)Oc1ccc(CN3CCC(N4CCCC4)CC3)cc1-2` [Compound 48, 10-(4-Pyrrolidin-1-yl-piperidin-1-ylmethyl)-2H-7-oxa-1,2-diaza-benzo[de]anthracen-3-one], the melting point lay within 258 to 264 °C.

The compound `O=C(O)C(O)C(O)C(=O)NCc1ccc2c(c1)-c1n[nH]c(=O)c3cccc(c13)O2` (stereo not shown) [Compound 52, 2,3-Dihydroxy-N-(3-oxo-2,3-dihydro-7-oxa-1,2-diaza-benzo[de]anthracen-10-ylmethyl)-succinamic acid] had a melting point of 181 to 185 °C.

The compound `CN(C)c1ccc(N=Nc2ccc(S(=O)(=O)NCc3ccc4c(c3)-c3n[nH]c(=O)c5cccc(c35)O4)cc2)cc1` [Compound 55, 4-(4-Dimethylamino-phenylazo)-N-(3-oxo-2,3-dihydro-7-oxa-1,2-diaza-benzo[de]anthracen-10-ylmethyl)-benzenesulfonamide] yielded a melting point of more than 300 °C.

With `CN(C)CC(=O)OCc1ccc2c(c1)-c1n[nH]c(=O)c3cccc(c13)O2` [Compound 59, Dimethylamino-acetic acid 3-oxo-2,3-dihydro-7-oxa-1,2-diaza-benzo[de]anthracen-10-ylmethyl ester], the melting point was 227 to 230 °C.

Consider `O=c1[nH]nc2c3c(cccc13)Oc1ccc(COP(=O)(OCc3ccccc3)OCc3ccccc3)cc1-2` [Compound 60, Phosphoric acid dibenzyl ester 3-oxo-2,3-dihydro-7-oxa-1,2-diaza-benzo[de]anthracen-10-ylmethyl ester], for which the melting point lay in the range of 223 to 225 °C.

For the compound `O=C(O)C(O)C(O)C(=O)NCc1ccc2c(c1)-c1n[nH]c(=O)c3cccc(c13)O2` (stereo not shown) [drawing 41], the pIC50 in data set [1] (Table II) was 7.68. The compound further gave a pEC50 in the data set on P388D1 cells (Table II) of 5.28.

Regarding `CN1CCN(Cc2ccc3c(c2)-c2n[nH]c(=O)c4cccc(c24)O3)CC1` [drawing 46], the pIC50 in data set [1] (Table II) is 7.13. The same compound had a pEC50 in the data set on P388D1 cells (Table II) of 6.89.

Consider `O=c1[nH]nc2c3c(cccc13)Oc1ccc(CN(CCO)CCO)cc1-2` [drawing 52], for which the pIC50 in data set [1] (Table II) was 7.42.

On to `CN(C)CC(=O)OCc1ccc2c(c1)-c1n[nH]c(=O)c3cccc(c13)O2` [drawing 54], for which the pIC50 in data set [1] (Table II) is 6.90.

With `O=c1[nH]nc2c3c(cccc13)Oc1ccc(COP(=O)(OCc3ccccc3)OCc3ccccc3)cc1-2` [drawing 55], the pIC50 in data set [1] (Table II) was 7.07. In the data set on P388D1 cells (Table II), the pEC50 is 6.28.

`O=c1[nH]nc2c3c(cccc13)Oc1ccc(CN3CCC(N4CCCC4)CC3)cc1-2` [drawing 63]: in the data set with P388D1 cells (Table II), the pEC50 is 6.52.

As a reminder, the pIC50 is the IC50 on a negative log10 scale, so that one unit is a factor of ten. By pEC50 is commonly meant −log10 of the EC50, conventionally taken in molar units. A higher pEC50 goes with a small EC50. In general, melting point refers to the temperature, or range, at which the solid turns liquid.
